These are literature values, as cited in publication PMC2796340 (Journal of the American Chemical Society, 2009).

For this data set, the target named is T1, Gal80 (Saccharomyces cerevisiae, UniProt P04387).
T1 sequence (P04387 1-435): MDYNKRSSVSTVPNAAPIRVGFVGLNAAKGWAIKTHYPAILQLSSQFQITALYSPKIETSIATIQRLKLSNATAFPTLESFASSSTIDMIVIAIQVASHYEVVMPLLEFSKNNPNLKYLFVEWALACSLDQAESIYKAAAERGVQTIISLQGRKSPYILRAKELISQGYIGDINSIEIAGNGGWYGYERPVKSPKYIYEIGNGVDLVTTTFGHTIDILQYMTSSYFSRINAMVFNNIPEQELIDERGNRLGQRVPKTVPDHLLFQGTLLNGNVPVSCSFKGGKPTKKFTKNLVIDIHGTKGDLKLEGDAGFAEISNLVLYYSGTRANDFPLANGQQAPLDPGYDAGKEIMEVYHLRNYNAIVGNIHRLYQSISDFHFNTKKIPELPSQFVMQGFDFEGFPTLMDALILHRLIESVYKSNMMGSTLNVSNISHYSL
The conditions noted are these: synthetic Gal4 activation domain peptide; ref [20].

As for “MDQTAYNAFGITTGMFNTTTMD DVYNYLFDDEDT [Gal4 AD]”, the “binding to the Gal80 repressor site” value was “binds the Gal80 repressor site with high affinity”.
